In this assay the test system is plasma GH. Nature of the assay: suppression of plasma GH after rGHRH challenge in rat. It is filed as in vivo. Conditions: rat studies (GH and IGF-1 suppression). Here is the method:
The in vivo pharmacological efficacy of paltusotine has been examined in rat and dog. In the rat, acute efficacy was evaluated by examining the suppression of plasma GH in response to a challenge with rat growth hormone releasing hormone (rGHRH). […] The effects of chronic, oral, 14-day administration of paltusotine were evaluated by measuring the sustained suppression of IGF-1 in the rat.

Structures are written as SMILES.

Turning to `C[C@@H](O)[C@@H]1NC(=O)[C@H](CCCCN)NC(=O)[C@@H](Cc2c[nH]c3ccccc23)NC(=O)[C@H](Cc2ccccc2)NC(=O)[C@@H](NC(=O)[C@H](N)Cc2ccccc2)CSSC[C@@H](C(=O)N[C@H](CO)[C@@H](C)O)NC1=O` [Octreotide, reference compound], the “maximal effects as positive control” value is recorded as “maximal effects similar to orally administered paltusotine”.

Source of the values: patent US12208092B2, “Compositions and methods for administering paltusotine to patients with hepatic impairment” (CRINETICS PHARMACEUTICALS, INC., priority 2023, dated 2025).
